Legend:
AS-30D hepatoma cells = assay: Hepatoma cell viability by trypan blue; type: cell-based, rat; details: 5 mM, 12 h
Method: AS-30D hepatoma cells grown in the peritoneal cavity of Sprague Dawley female rats (see Materials) were adapted to grow in tissue culture in Dulbecco's modified Eagle's medium containing 10% fetal bovine serum. Cells were maintained at 37° C. in a humidified atmosphere containing 5% CO2, and counted in a Neubauer chamber after trypan blue dye addition (cell/dye volume=1/1) by visualization under a Nikon inverted microscope.
The studies described above using the VX2 tumor model for liver cancer predict that 2DOG and 3BrPA may have the capacity to kill hepatoma cells expressing the high glycolytic/high hexokinase phenotype. […] Cell killing was assessed in these experiments by counting those cells in which trypan blue had entered.

VX2 tumor slices = assay: Glycolysis (lactic acid formation) in VX2 tumor slices; type: cell-based, rabbit
Method: Glycolysis was assayed by monitoring the formation of lactic acid following the addition of glucose to a medium containing VX2 tumor slices. Specifically, freshly excised tumors were washed 3 times at 4° C. in 20 ml Chance Hess Medium containing 6.2 mM KCl, 154 mM NaCl, and 11 mM NaPi, pH 7.4. Slices, 1 g each, were then prior incubated for 30 min in a Lab-Line incubator-shaker at 37° C. in 2 ml of the same medium while shaking at 50 rpm. Glucose was then added to give a final concentration of 6 mM, after which the incubation/shaking process was continued with 0.2 ml samples being removed every 30 min for up to 2 h. These samples were subjected to centrifugation at 14,000 rpm in an Eppendorf Centrifuge (Model 5415C). Then, aliquots of the supernatant, 0.01 ml, were removed from each sample, diluted with 0.03 ml of water and subjected to lactic acid determination using the kit supplied by Sigma. The latter contains, in addition to lactic dehydrogenase and NAD+, hydrazine, and glycine buffer, pH 9.2. The mixture was incubated for 30 min at 25° C. after which the absorbance due to formation of NADH was determined at 340 nm using a Gilford Model 260 spectrophotometer. To assess the elevation of the glycolytic activity of the VX2 tumor over that of liver tissue, parallel studies were always carried out in an identical manner with 1 g liver slices derived from the host liver. Finally, in those cases where agents were tested for their capacity to inhibit glycolysis, these were introduced into the system at the prior incubation step with all subsequent steps being run in parallel with those described above for the VX2 tumor or liver alone.
The screen included the following 9 compounds: 2-deoxyglucose (2DOG), 2-fluoro-2-deoxyglucose, 6-fluoro-6-deoxyglucose, 3-O-methyl glucose, 5-thio-D-glucose-6-phosphate, L-glucose, D-xylose, D-lyxose, and 3-bromopyruvic acid (3BrPA). The screen was conducted by incubating VX2 tumor slices in a medium containing 6 mM glucose with 6 mM of each of these agents at 37° C. for 5 h. The use of 6 mM glucose in the medium was used to mimic the maximal amount of glucose that might be in the blood in a real in vivo situation.
With the above preliminary data at hand, only two of the 9 compounds screened were studied in more detail. One was 2DOG because under certain conditions it is known to inhibit glycolysis when it is phosphorylated by hexokinase to 2DOG-6-P which cannot be further metabolized. The other compound tested in more detail was 3BrPA because of its effectiveness as a glycolytic inhibitor in the preliminary screen.

O=C(O)C(=O)CBr [3BrPA, 3-bromopyruvic acid]
cells killed (trypan blue uptake) (AS-30D hepatoma cells): killing all cells
inhibition of VX2 tumor glycolysis in the limited screen (VX2 tumor slices; 6 mM agent, 6 mM glucose, 37° C., 5 h): almost completely inhibited
IC50 (VX2 tumor slices; Oryctolagus cuniculus, 0.5 h, read-out: half maximal inhibition of glycolysis): 2400 µM
concentration for maximal or complete inhibition of glycolysis (VX2 tumor slices; VX2 tumor slices, agent prior incubated 30 min at 37° C.): about 15 mM

From patent US8119116B2, “Therapeutics for cancer using 3-bromopyruvate and other selective inhibitors of ATP production” (John Hopkins University School of Medicine, priority 2001, dated 2012)
